Values joined by “and” are separate entries in the source; they are usually repeats but may differ in a detail not shown here. Equal entries are not always repeated. Where two headings read alike, the source gives them in different places.

By Papp is commonly meant a coefficient for how fast a substance crosses the barrier. Low values mean slow passage, high ones fast passage. The term log P denotes the decadic logarithm of the partition coefficient of the neutral form, usually between octanol and water.

For data set [1], the target named is T1, human P-gp-His10 (Homo sapiens, UniProt P08183).
T1 sequence (P08183 whole entry): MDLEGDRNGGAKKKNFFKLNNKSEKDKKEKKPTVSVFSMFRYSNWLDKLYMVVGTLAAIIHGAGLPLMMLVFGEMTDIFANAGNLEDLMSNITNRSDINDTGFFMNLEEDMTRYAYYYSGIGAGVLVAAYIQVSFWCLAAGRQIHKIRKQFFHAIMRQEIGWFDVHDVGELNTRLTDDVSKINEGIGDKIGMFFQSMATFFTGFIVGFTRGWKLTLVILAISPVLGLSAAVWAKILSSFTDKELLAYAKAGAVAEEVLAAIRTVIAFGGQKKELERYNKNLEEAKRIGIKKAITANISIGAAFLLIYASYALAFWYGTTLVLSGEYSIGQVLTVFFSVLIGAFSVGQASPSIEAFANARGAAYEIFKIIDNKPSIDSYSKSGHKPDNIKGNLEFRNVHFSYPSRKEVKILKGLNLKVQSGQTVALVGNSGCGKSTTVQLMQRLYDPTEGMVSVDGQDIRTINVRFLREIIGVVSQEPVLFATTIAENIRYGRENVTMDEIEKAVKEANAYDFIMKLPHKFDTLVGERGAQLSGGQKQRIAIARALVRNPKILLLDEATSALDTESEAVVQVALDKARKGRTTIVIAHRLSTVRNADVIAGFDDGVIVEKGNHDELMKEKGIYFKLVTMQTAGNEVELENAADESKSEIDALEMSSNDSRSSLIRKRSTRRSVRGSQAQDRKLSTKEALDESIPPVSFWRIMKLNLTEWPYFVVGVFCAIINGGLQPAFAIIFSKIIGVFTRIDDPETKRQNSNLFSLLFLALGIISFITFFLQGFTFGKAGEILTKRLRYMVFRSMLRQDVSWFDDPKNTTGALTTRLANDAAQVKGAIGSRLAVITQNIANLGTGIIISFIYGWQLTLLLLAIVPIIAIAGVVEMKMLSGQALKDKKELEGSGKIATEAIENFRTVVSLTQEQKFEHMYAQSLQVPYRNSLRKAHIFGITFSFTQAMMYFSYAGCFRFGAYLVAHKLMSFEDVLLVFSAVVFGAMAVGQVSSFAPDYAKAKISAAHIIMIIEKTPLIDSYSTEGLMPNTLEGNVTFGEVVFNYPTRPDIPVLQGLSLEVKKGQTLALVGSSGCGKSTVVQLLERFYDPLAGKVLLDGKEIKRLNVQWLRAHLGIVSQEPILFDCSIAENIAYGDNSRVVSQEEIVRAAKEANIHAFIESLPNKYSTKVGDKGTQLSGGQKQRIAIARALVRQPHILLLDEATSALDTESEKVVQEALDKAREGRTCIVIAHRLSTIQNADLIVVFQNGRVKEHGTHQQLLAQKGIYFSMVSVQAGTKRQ
Data set [2] addresses T1, human P-gp-His10. Description: Stimulation of human P-gp-His10 ATPase activity. To be noted: read-out: KM (apparent Michaelis-Menten constant, concentration for half maximal stimulation of ATPase activity).
The subject of data set [3] is MDCKII-MDR1 transfected cells, which over-express P-gp. To be noted: dog, MDCK-MDR1.
The test system of the next data set is P-gp. Description: in vitro. To be noted: dog, MDCK-MDR1.
Data set [4] has as its system MDCKII-MDR1 transfected cells, which over-express P-gp. The data set can be described thus: Transport and cell association across monolayers of MDCKII-MDR1 cells. To be noted: 5 μM dye, 4.3 mg mL^−1 BSA (23-Se: no added BSA); for PAB (absorptive transport), + inh / PBA (secretory transport), + inh: + […] inhibitor 42.
A further data set in a line: log P. To be noted: n-octanol/water. It is filed as physicochemical.

`CN(C)c1ccc(-c2c3ccc(=[N+](C)C)cc-3[se]c3cc(N(C)C)ccc23)cc1` [Compound 5-Se]: the Km at human P-gp-His10 [1] was 10.1 ± 0.7 µM.

As to `CN(C)c1ccc2c(-c3ccccc3)c3ccc(=[N+](C)C)cc-3[te]c2c1` [Compound 1-Te], the Km at human P-gp-His10 [1] amounted to 8.3 ± 0.8 µM.

Regarding `CN(C)c1cccc(-c2c3ccc(=[N+](C)C)cc-3sc3cc(N(C)C)ccc23)c1` [Compound 7-S], the Km at human P-gp-His10 [2] came out at 3.4 ± 0.6 µM.

Regarding `CN(C)c1ccc2c(-c3ccc(CCl)cc3)c3ccc(=[N+](C)C)cc-3oc2c1.[Br-]` [TMR, tetramethylrosamine], in data set [3], the “P BA/AB (ratio of secretory to absorptive transport), + inh” value is recorded as 338 1.6; the “PAB (absorptive transport)” value was 3.0 ± 0.1 14 ± 1 nm s^−1; the “PAB (absorptive transport), + inh” value is recorded as 3.0 ± 0.1 14 ± 1 nm s^−1; the “PBA (secretory transport), + inh” value was 1010 ± 10 21 ± 2 nm s^−1. The Papp with P-gp turned out to be 1.7 ± 0.5 ×10⁻⁶ cm/s.

Take `COc1cccc(-c2c3ccc(=[N+](C)C)cc-3[se]c3cc(N(C)C)ccc23)c1` [Compound 10-Se]: at human P-gp-His10 [1], the Km came out at 3.3 ± 0.6 µM.

Regarding `CN(C)c1cccc(-c2c3ccc(=[N+](C)C)cc-3[te]c3cc(N(C)C)ccc23)c1` [Compound 7-Te], the Km on human P-gp-His10 [1] is 2 ± 0.1 µM.

Turning to `CN(C)c1ccc2c(-c3ccc(C(=S)N4CCCCC4)s3)c3ccc(N(C)C)cc3[te+]c2c1.F[P-](F)(F)(F)(F)F` [Compound 30-Te, 3,6-Bisa(dimethylamino)-9-(N-piperidyl-2-thienyl-5-thiocarboxamido)telluroxanthylium Hexafluorophosphate], the Km at human P-gp-His10 [2] is 0.41 ± 0.03 µM. Besides, in data set [4], the “PAB (absorptive transport), + inh” value was determined as 1.2 ± 0.1 nm/s and the “PBA (secretory transport), + inh” value turned out to be 0.2 ± 0.01 ×10⁻⁶ cm/s. For the same compound, in data set [4] (no inhibitor), the “PAB (absorptive transport)” value is 0.09 ± 0.01 ×10⁻⁶ cm/s and the “PBA (secretory transport)” value was 2.2 ± 0.8 ×10⁻⁶ cm/s. Also, in the data set “log P”, the “log P” value amounted to 0.9.

As for `CN(C)c1ccc2c(-c3ccc(C(=S)N4CCCCC4)s3)c3ccc(N(C)C)cc3[s+]c2c1` [Compound 30-S, 3,6-Bis(dimethylamino)-9-(N-piperidyl-2-thienyl-5-thiocarboxamido)thioxanthylium Hexafluorophosphate], the Km on human P-gp-His10 [2] is 0.36 ± 0.08 µM.

With `CN(C)c1ccc(-c2c3ccc(=[N+](C)C)cc-3sc3cc(N(C)C)ccc23)cc1` [Compound 5-S], the Km at human P-gp-His10 [2] came to 8.3 ± 1.2 µM.

For `CN(C)c1cccc(-c2c3ccc(=[N+](C)C)cc-3[se]c3cc(N(C)C)ccc23)c1` [Compound 7-Se], the Km at human P-gp-His10 [1] came out at 3.5 ± 0.2 µM.

Turning to `CN(C)c1ccc2c(-c3ccc(C(=S)N4CCCCC4)s3)c3cc4c5c(c3[s+]c2c1)CCCN5CCC4.F[P-](F)(F)(F)(F)F` [Compound 31-S, 12-(Dimethylamino)-2,3,6,7-tetrahydro-9-(N-Piperidyl-2-thienyl-5-thiocarboxamido)-1H,5H-thioxantheno[2,3,4-ij]quinolizin-14-ium Hexafluorophosphate], the Km on human P-gp-His10 [2] turned out to be 0.087 ± 0.012 µM. In data set [4], the “PAB (absorptive transport), + inh” value is listed as 0.8 ± 0.1 0.8 ± 0.1 nm s^−1 and the “PBA (secretory transport), + inh” value was 0.16 ± 0.01 ×10⁻⁶ cm/s. Further, the “PBA (secretory transport)” value in data set [4] (no inhibitor) was 5 ×10⁻⁶ cm/s and 5 ± 0.1 ×10⁻⁶ cm/s.

For `COc1cccc(-c2c3ccc(=[N+](C)C)cc-3sc3cc(N(C)C)ccc23)c1` [Compound 10-S], on human P-gp-His10 [2], the Km came to 3.9 ± 0.1 µM.

In the case of `CN(C)c1ccc(-c2c3ccc(=[N+](C)C)cc-3[te]c3cc(N(C)C)ccc23)cc1` [Compound 5-Te], at human P-gp-His10 [1], the Km was determined as 9 ± 0.8 µM.

As for `CN(C)c1ccc2c(-c3ccccc3)c3ccc(=[N+](C)C)cc-3[se]c2c1` [Compound 1-Se], the Km on human P-gp-His10 [1] worked out at 9.1 ± 1.1 µM.

Turning to `COc1cccc(-c2c3ccc(=[N+](C)C)cc-3[te]c3cc(N(C)C)ccc23)c1` [Compound 10-Te], the Km at human P-gp-His10 [1] was 3.2 ± 1 µM.
